According to patent US20080286349A1, “SYSTEMS, DEVICES, AND METHODS FOR PASSIVE TRANSDERMAL DELIVERY OF ACTIVE AGENTS TO A BIOLOGICAL INTERFACE” (priority 2007, published 2008):
Structures can show the parent of a compound that is named as a salt.

How the values were obtained:
[1] = Computed membrane potential and ion flux (Eq. 11 Goldman equation, Eq. 12); conditions: relative to Cl−
Description: Further, it is necessary to linearly approximate the concentration gradient or the electric potential gradient to solve equation 9. […] The potential difference across the skin has been considered for a single component system. […] Thus, a film potential can be calculated provided that the ion mobility (omega) and concentration (c) within the skin are known. The ion transport speed can then be found from the calculated film potential.

[2] = Membrane potential measurement across skin in H-shaped Franz cell; ion mobility relative to chloride; type: physicochemical, mouse; conditions: Cl− = 1
Description: The electric potential difference shown here is between the outside and the inside of the skin. The “+/−” notation is opposite to that shown in Equation 12. […] These values have been used to make calculations.

[3] = Delivery of aqueous drug solutions through skin in Franz cell (amount over time, flux); conditions: for experimental Flux J: 1.0% Diclofenac
Description: An H-shaped Franz cell (FIG. 7) was used to evaluate the theory described herein. As shown, the Franz cell 28 includes a donor chamber 30a and a receiver chamber 30b. The donor chamber 30a contains an ionic active agent, which permeates through a membrane 32 to reach the receiver chamber 30b. A working electrode 34a was inserted in the donor chamber 30a, while a counter electrode 34b (i.e., reference electrode) was inserted in the receptor chamber 30b. It is possible to measure the electrical potential difference induced by the ionic diffusion/permeation and the concentration gradient thus established. […]

[4] = Example 1: Procaterol HCl solutions, Franz cell at 32° C.; type: in vitro ADME, mouse; set-up: unit not given here
Procedure: Typically, 17 ml of phosphate buffered saline (PBS, sold by Wako Pure Chemical Industries) was injected into the receptor cell, and a 10 mm stirring bar was used to agitate the solution during the test. The Franz cell was placed in an incubator (made by ESPEC, model LH-113) with the temperature set to 32° C. and the humidity set to 70%. Samples were typically extracted from the cell at predetermined times using a 200 μl Gilson Pipetman. 200 μl of PBS was then added to the cell after each sampling operation.
For measuring the active agent (e.g., Procaterol cation) permeated, a standard solution with known concentration can be prepared and compared with the concentration measured. Using Procaterol HCl as an example, 50 mg of Procaterol HCl (97.25% anhydrous) was accurately measured out, and then added to water to form 50 ml of solution (“Procaterol concentrate liquid”). The standard concentrate was then diluted (“Procaterol standard solution”) and used as a mobile phase for high performance (or pressure) liquid chromatography (HPLC). The Procaterol concentrate liquid was sealed in a light shielding bottle and stored in a refrigerator. 10 μl of each test sample and 10 μl of the standard solution was measured using HPLC, and Procaterol peak areas At (test samples) and As (standard solution) were determined for each sample. Procaterol HCl masses were then found for each test sample using the following equation: […]
In Example 1, before testing the delivery device 10, sixteen tests were performed at four different agent concentrations (four tests (#1, #2, #3, and #4) for each concentration of active agent) using Procaterol HCl in order to investigate the transport of Procaterol cation into and through skin along a concentration gradient. A Franz cell was used at 32° C. using hairless mouse skin as a permeable membrane. 720 corresponds to the average delivery of a 5 wt % Procaterol-HCl concentration, 722 corresponds to the average delivery of a 2.5 wt % Procaterol-HCl concentration, 724 corresponds to the average delivery of a 1 wt % Procaterol-HCl concentration, and 726 corresponds to the average delivery of a 0.5 wt % Procaterol-HCl concentration. […] It can be seen that the amount of Procaterol delivered through the skin increases over time. Further, it can also be seen that the amount of Procaterol delivered increases with increased Procaterol concentration. To deliver a medically effective amount of Procaterol through the skin, the concentration of the Procaterol solution must be equal to or greater than a certain threshold concentration. A sufficient amount of Procaterol dissolved in water was used in this experiment, thus leading to a rather large Procaterol delivery speed. It is therefore possible to deliver Procaterol through the skin, provided that the solution exists in proximity to the surface of the skin.

SMILES: O=C1O[C@H]([C@@H](O)CO)C(O)=C1O[C@H]1O[C@H](CO)[C@@H](O)[C@H](O)[C@H]1O [AA2G, L-Ascorbic acid 2-Glucoside]
- Mobility ratio w ([1]; AA2G 0.000059 mol cm^3): 0.1
- Mobility ratio w ([1]; AA2G 0.000148 mol cm^3): 0.4
- Mobility of ion (AA2G− compared to chloride ions) ([2]; AA2G 300 mM (0.296 mol dm^−3 donor)): 0.83

SMILES: O=C([O-])Cc1ccccc1Nc1c(Cl)cccc1Cl.[Na+] [Diclofenac, monosodium 2-(2-(2,6-dichlorophenylamino)phenyl)acetate]
- Mobility ratio w ([1]; Diclofenac 0.0000016 mol cm^−3): 4.6
- Mobility ratio w ([1]; Diclofenac 0.0000032 mol cm^−3 (last line)): 4.6
- Mobility ratio w ([1]; Diclofenac 0.0000032 mol cm^−3 (third line)): 4.6
- Mobility ratio w ([1]; Diclofenac 0.000016 mol cm^−3): 4.6
- Mobility of ion (Diclofenac anion compared to chloride ions) ([2]; 0.032 mol dm^−3 sodium Diclofenac donor): 4.6
- Flux ([3]; 0.003 M sodium Diclofenac): 1.30 μg h^−1 cm^−2
- Amount of Diclofenac delivered ([3]; 0.003 M, time 0 hr): 0.0
- Amount of Diclofenac delivered ([3]; 0.003 M, time 1 hr): 0.0
- Amount of Diclofenac delivered ([3]; 0.003 M, time 3 hr): 2.0
- Amount of Diclofenac delivered ([3]; 0.003 M, time 5 hr): 5.6
- Amount of Diclofenac delivered ([3]; 0.003 M, time 24 hr): 31.1
- Flux ([3]; 0.016 M sodium Diclofenac): 2.21 μg h^−1 cm^−2
- Amount of Diclofenac delivered ([3]; 0.016 M, time 0 hr): 0.0
- Amount of Diclofenac delivered ([3]; 0.016 M, time 1 hr): 0.0
- Amount of Diclofenac delivered ([3]; 0.016 M, time 3 hr): 3.6
- Amount of Diclofenac delivered ([3]; 0.016 M, time 5 hr): 9.8
- Amount of Diclofenac delivered ([3]; 0.016 M, time 24 hr): 53.1
- Flux ([3]; 0.031 M sodium Diclofenac): 4.62 μg h^−1 cm^−2
- Amount of Diclofenac delivered ([3]; 0.031 M, time 0 hr): 0.0
- Amount of Diclofenac delivered ([3]; 0.031 M, time 1 hr): 0.3
- Amount of Diclofenac delivered ([3]; 0.031 M, time 3 hr): 5.4
- Amount of Diclofenac delivered ([3]; 0.031 M, time 5 hr): 12.1
- Amount of Diclofenac delivered ([3]; 0.031 M, time 24 hr): 110.9
- experimental Flux J ([3]; KCl conc 0 %): 4.3 μg h^−1 cm^−2
- experimental Flux J ([3]; KCl conc 0.1 %): 6.2 μg h^−1 cm^−2
- experimental Flux J ([3]; KCl conc 0.5 %): 7.0 μg h^−1 cm^−2

SMILES: CCC(NC(C)C)C(O)c1ccc(O)c2[nH]c(=O)ccc12 (stereo not shown) [Procaterol HCl, 8-hydroxy-5-[1-hydroxy-2-[(1-methylethyl)amino]butyl]-2(1H)-quinolinone]
- Mobility ratio w ([1]; Procaterol 0.000015 mol cm^−3): 0.13
- Mobility ratio w ([1]; Procaterol 0.00003 mol cm^−3): 0.13
- Mobility ratio w ([1]; Procaterol 0.00006 mol cm^−3): 0.13
- Mobility of ion (Procaterol cation with respect to chloride ions) ([2]; […] Procaterol HCl donor): 0.13
- Total transmission amount, Ave. ([4]; Test ID 720 (5.0%), 0 hrs.): 0.0
- Total transmission amount, single samples #1-#4 ([4]; Test ID 720 (5.0%), 0 hrs.): 0.0
- Total transmission amount, Ave. ([4]; Test ID 720 (5.0%), 1 hr.): 0.7
- Total transmission amount, Ave. ([4]; Test ID 720 (5.0%), 3 hrs.): 5.3
- Total transmission amount, Ave. ([4]; Test ID 720 (5.0%), 5 hrs.): 10.4
- Total transmission amount, Ave. ([4]; Test ID 720 (5.0%), 8 hrs.): 16.3
- Total transmission amount, Ave. ([4]; Test ID 722 (2.5%), 0 hrs.): 0.0
- Total transmission amount, single samples #1-#4 ([4]; Test ID 722 (2.5%), 0 hrs.): 0.0
- Total transmission amount, Ave. ([4]; Test ID 722 (2.5%), 1 hr.): 0.4
- Total transmission amount, Ave. ([4]; Test ID 722 (2.5%), 3 hrs.): 1.7
- Total transmission amount, Ave. ([4]; Test ID 722 (2.5%), 5 hrs.): 2.8
- Total transmission amount, Ave. ([4]; Test ID 722 (2.5%), 8 hrs.): 4.1
- Total transmission amount, Ave. ([4]; Test ID 724 (1.0%), 0 hrs.): 0.0
- Total transmission amount, single samples #1-#4 ([4]; Test ID 724 (1.0%), 0 hrs.): 0.0
- Total transmission amount, Ave. ([4]; Test ID 724 (1.0%), 1 hr.): 0.0
- Total transmission amount, single samples #1-#4 ([4]; Test ID 724 (1.0%), 1 hr.): 0.0
- Total transmission amount, Ave. ([4]; Test ID 724 (1.0%), 3 hrs.): 0.2
- Total transmission amount, Ave. ([4]; Test ID 724 (1.0%), 5 hrs.): 0.4
- Total transmission amount, Ave. ([4]; Test ID 724 (1.0%), 8 hrs.): 0.7
- Total transmission amount, Ave. ([4]; Test ID 726 (0.5%), 0 hrs.): 0.0
- Total transmission amount, single samples #1-#4 ([4]; Test ID 726 (0.5%), 0 hrs.): 0.0
- Total transmission amount, Ave. ([4]; Test ID 726 (0.5%), 1 hr.): 0.0
- Total transmission amount, single samples #1-#4 ([4]; Test ID 726 (0.5%), 1 hr.): 0.0
- Total transmission amount, Ave. ([4]; Test ID 726 (0.5%), 3 hrs.): 0.2
- Total transmission amount, Ave. ([4]; Test ID 726 (0.5%), 5 hrs.): 0.5
- Total transmission amount, Ave. ([4]; Test ID 726 (0.5%), 8 hrs.): 0.8
- Flux ([3]; 0.015 M aqueous Procaterol): 0 mg h^−1 cm^−2
- Amount of aqueous Procaterol delivered ([3]; 0.015 M, time 0 hr): 0
- Amount of aqueous Procaterol delivered ([3]; 0.015 M, time 2 hr): 0
- Amount of aqueous Procaterol delivered ([3]; 0.015 M, time 3 hr): 0
- Amount of aqueous Procaterol delivered ([3]; 0.015 M, time 5 hr): 0
- Flux ([3]; 0.03 M aqueous Procaterol): 0.024 mg h^−1 cm^−2
- Amount of aqueous Procaterol delivered ([3]; 0.03 M, time 0 hr): 0
- Amount of aqueous Procaterol delivered ([3]; 0.03 M, time 2 hr): 0
- Amount of aqueous Procaterol delivered ([3]; 0.03 M, time 3 hr): 0
- Amount of aqueous Procaterol delivered ([3]; 0.03 M, time 5 hr): 0.12
- Flux ([3]; 0.06 M aqueous Procaterol): 0.082 mg h^−1 cm^−2
- Amount of aqueous Procaterol delivered ([3]; 0.06 M, time 0 hr): 0
- Amount of aqueous Procaterol delivered ([3]; 0.06 M, time 2 hr): 0.13
- Amount of aqueous Procaterol delivered ([3]; 0.06 M, time 3 hr): 0.22
- Amount of aqueous Procaterol delivered ([3]; 0.06 M, time 5 hr): 0.41
- Flux ([3]; […] aqueous Procaterol): 0.84 mg h^−1 cm^−2
- Amount of aqueous Procaterol delivered ([3]; […], time 0 hr): 0
- Amount of aqueous Procaterol delivered ([3]; […], time 2 hr): 1.53
- Amount of aqueous Procaterol delivered ([3]; […], time 3 hr): 2.47
- Amount of aqueous Procaterol delivered ([3]; […], time 5 hr): 4.20
